{
  "source": "patent US20210212962A1",
  "about": "“METHODS AND COMPOSITIONS FOR THE TREATMENT OF GRANULOMA ANNULARE OR SUBCUTANEOUS INFLAMMATION AND NON-INFECTION GRANULOMATOUS DISEASES” (Sol-Gel Technologies Ltd., priority 2020, published 2021)",
  "origin": "cited, not measured here",
  "details": "known for tapinarof treatments",
  "data": [
    {"smiles": "CC(C)c1c(O)cc(/C=C/c2ccccc2)cc1O", "note": "[tapinarof, 3,5-dihydroxy-4-isopropyl-trans-stilbene]", "values": [
      {"measurement": "folliculitis as a side effect in tapinarof treatments", "value": 10, "unit": "%"}
    ]}
  ]
}
